We go through two compounds from PMC8490515, “Neuromedin B receptor stimulation of Cav3.2 T-type Ca^2+ channels in primary sensory neurons mediates peripheral pain hypersensitivity” (Theranostics, 2021).

For one assay, the system named is nociceptive reflex. The following applies: intrathecal injection; ref [4], [5]; cited from earlier work. From the text:
Neuromedin B (Nmb) is a highly conserved and non-glycosylated polypeptide in mammals initially purified from porcine spinal cord that serves as a neuromodulator by paracrine or autocrine mechanisms. Nmb receptor (NmbR), which is located predominantly (but not exclusively) in peripheral tissues and organs and the central nervous system in mammals, has been identified as an endogenous receptor for Nmb. Acting through this receptor, Nmb mediates several behavioural effects and performs various biological functions, including regulating food intake, smooth muscle contraction, body temperat ...

Assay [1] has as its system voltage-gated Na^+ channels (Nav). Put plainly: Whole-cell voltage-gated Na+ channel currents in TG neurons. To be noted: 100 nM. It counts as cell-based, mouse. Here is the method:
(§1) All the procedures performed in this study were carried out in accordance with NIH guidelines and were approved by the Institutional Animal Care and Use Committee of Soochow University. TG neurons were dissociated as previously described, [23]. Briefly, TGs were harvested from 8- to 10-week-old ICR mice of either sex, cut into small pieces and treated with 2 mg/mL collagenase D (Roche) for 20 min followed by 1.5 mg/mL trypsin (Sigma) at 37 °C for 15 min. Cells were dissociated via gentle trituration with fire-polished sterilized Pasteur pipettes and centrifuged through a 15% BSA gradient to remove debris and nonneuronal cells. TG neurons were resuspended in neurobasal A (Thermo Fisher) supplemented with B27 (Thermo Fisher) and transferred onto Matrigel-coated coverslips. Patch clamp recordings were conducted 2 to 6 h after plating. In shRNA-treated knockdown experiments, TG cells were replated onto coverslips 48 h after infection.
(§2) Standard whole-cell recordings were made at room temperature (22-23 °C) as described previously, [25]. Recording electrodes were pulled from borosilicate glass microcapillary tubes (Sutter Instruments) and had resistances from 3 to 5 MΩ when filled with internal solution. Recordings were obtained using a MultiClamp 700B amplifier (Axon Instruments). […]

The test system of another assay is Cav3.1 (α1G). Put plainly: Cav3.1 channel currents in HEK293 cells coexpressing NmbR. It counts as cell-based, human. The following applies: 100 nM Nmb; -110 mV to -30 mV; n = 10.
Assay [2] deals with sustained delayed rectifier K^+ channel (IDR). Put plainly: Sustained delayed rectifier K+ currents (IDR) in TG neurons. The following applies: 100 nM. Type of assay: cell-based, mouse. The procedure: as §1, §2
The test system of assay [3] is Nmb-induced mechanical hypersensitivity in mice. Put plainly: Nmb-induced mechanical hypersensitivity, effect of pretreatment (Figure 7C). Type of assay: in vivo, mouse. To be noted: intra-TG KT-5720 2 nmol prior to 1 nmol Nmb; 1 h; n = 8 - 10. The procedure:
Mice were housed on a 12 h light/dark cycle, maintained in a humidity- and temperature-controlled room with water available ad libitum and were acclimated to the experimenter for 2 d before the first behavioural observations. Experimenters were blinded to the treatment or genotypes of the mice. As described previously, [31], an Orofacial Stimulation Test (Ugo Basile, Italy) was used for the measurement of hypersensitivity to the mechanical stimulation of the trigeminal area. Briefly, the mice initially underwent one week of adaptation trainings after a 12 h fasting food period. Each mouse was then placed in a cage in which there was an Orofacial Stimulation Test system. […] The contact number and total duration of time the mouse spent acquiring the reward were analyzed with the ORO software.
For experiments that several time points are needed to be checked in 24 h, von Frey test was used, as orofacial stimulation test can be checked only once a day, [32]. […] Mechanical hypersensitivity was assessed as described in previous studies, [33]. In brief, the threshold was assessed with a set of von Frey hairs (0.02-2.56 g, Stoelting) applied to the whisker pad in an ascending series of trials, with three separate von Frey stimulations applied per series. The threshold was determined when mice moved their heads away briskly and strongly from at least one of the three stimuli. […]

Regarding Neuromedin B [Nmb], in the assay on nociceptive reflex, the nociceptive reflex responses entry is “elicits nociceptive reflex responses”. Further, in assay [1], the “effect on whole-cell Nav currents” value is listed as “did not affect”. Moreover, the “increase of Cav3.1 channel currents” value in the assay with Cav3.1 (α1G) is 0.7 ± 1.2%. Besides, the “decrease of IDR” value in assay [2] is 1.9 ± 1.6%.

For the compound `CCCCCCOC(=O)[C@]1(O)C[C@@H]2O[C@@]1(C)n1c3ccccc3c3c4c(c5c6ccccc6n2c5c31)C(=O)NC4` [KT-5720], the “effect on Nmb-induced mechanical hypersensitivity” value in assay [3] was “abolished”.
